What was measured:
[1] = tested on: wt microglia; test: Microglial phagocytosis of aggregated fluorescein-labeled Aβ1-42 (flow cytometry), wt microglia; format: cell-based, mouse; conditions: for Aβ1-42 uptake (percent of wt controls): n=6
Protocol: (§1) Microglial Aβ phagocytosis. At DIV 14, microglia were seeded in 6-well plates at 1.5×10^5 cells per well in microglial culture medium. After 2hr seeding, medium was changed with 1.5 ml of serum-free DMEM medium containing penicillin and streptomycin. To make aggregated Aβ for phagocytosis, Aβ was dissolved in 2 mM NaOH and was diluted into 10 μM of stock solution (100×) in PBS followed by incubation at 37° C. for 2 hr and monitored by turbidity. For studying signaling pathways involved in Aβ phagocytosis, some microglia were pre-treated for 1 hr with AH6809 (20 μM), butaprost ([…]), SC51089 (10 μM), PTPE2 (20 μM), forskolin (50 μM), or BIM (10 μM) prior to treatment with aggregated fluorescein labeled AP1-42 (100 nM). After 24hr incubation of Aβ, cells were washed with PBS followed by trypsinization (0.05%) and centrifugation. Cells were then re-suspended in PBS and subjected to flow cytometry. Flow cytometer (FACScan, BD Biosciences, San Jose, Calif.) set at un-gated 10,000 cells per measure was used to analyze Aβ uptake as an indication of Aβ phagocytosis. Data were analyzed using Summit Mo-Flo software (Cytomation, Fort Collins, Colo.). Phagocytosis was presented as percent of mean FITC intensity in wt controls treated with Aβ. Some cells were plated onto chambered slides at 1×10^4 for assessing cellular uptake of Aβ using fluorescent microscope (Nikon TE200).

[2] = tested on: EP2^−/− microglia; test: Microglial phagocytosis of aggregated fluorescein-labeled Aβ1-42 (flow cytometry), EP2−/− microglia; format: cell-based, mouse
Protocol: as §1

[3] = BIM at 10 μM, 1 hr pre-treatment, 100 nM fluorescein-Aβ1-42, 24 hr

Molecule: O=S(=O)(NCCNC/C=C/c1ccc(Br)cc1)c1cccc2cnccc12 [H89]
- Effect on Aβ1-42 uptake ([1]; PKA inhibitor): did not enhanced Aβ1-42 uptake

Molecule: O=C(O)CCC/C=C\C[C@H]1C(=O)C[C@@H](O)[C@@H]1/C=C/[C@@H](O)CCc1ccccc1 [PTPE2, 17-phenyl trinor prostaglandin E2]
- Effect on Aβ1-42 phagocytosis ([1]; PTPE2 at 20 μM): without effect
- Effect on Aβ1-42 phagocytosis ([2]; PTPE2 at 20 μM): without effect

Molecule: CCCC1([C@H](O)C/C=C/[C@H]2[C@H](O)CC(=O)[C@@H]2CCCCCCC(=O)OC)CCC1 [butaprost]
- Aβ1-42 uptake (percent of wt controls) ([1]; 1 μM): 98±3%
- Aβ1-42 uptake (percent of wt controls) ([1]; 10 μM): 104±2%
- Aβ1-42 uptake (percent of wt controls) ([1]; 50 μM): 92±2%

Molecule: SC51089
- Effect on Aβ1-42 phagocytosis ([1]; SC51089 at 10 μM): without effect
- Effect on Aβ1-42 phagocytosis ([2]; SC51089 at 10 μM): without effect

Molecule: bisindolylmaleimide [BIM]
- Aβ1-42 uptake, % of wt basal Aβ1-42 uptake [1, 3]: 36±4%
- Aβ1-42 uptake, % of wt basal Aβ1-42 uptake [2, 3]: 35±4%
